In patent publication US10220024B2, “Method of inhibiting cancer cell, method for detecting cancer cell, and system for detecting cancer cell” (CANON KABUSHIKI KAISHA, priority 2012, dated 2019):
Where two headings read alike, the source gives them in different places.

System: Prostatic cancer cells, PC-3
Assay: Cancer cell inhibitory (growth suppressive) action against prostatic cancer cells, CellTiter-Glo viable cell count
Format: cell-based
Settings: PC-3, 10 μg/mL, 24 hours
Procedure: Prostatic cancer cells, PC-3, were pre-cultured in RPMI1640 medium containing 10% FBS at 37° C. in a 5% CO2 ambient. Thereafter, 4,000 cells were seeded per well of a 96-well plate and further cultured for 24 hours. Subsequently, Compound (11) was added to the medium so as to obtain a final concentration of 10 μg/mL and cultured at 37° C. for 24 hours in a 5% CO2 ambient. The cultured cells were analyzed for viable cell count according to CellTiter-Glo Luminescent Cell Viability Assay (manufactured by Promega KK.). As a reference, the number of cells cultured in a medium containing a 0.1% dimethylsulfoxide solution (hereinafter, simply referred to as DMSO) in place of a medium containing Compound (11), in the aforementioned operation, was used as 100.
Viable cell count was analyzed in the same manner as in Experimental Example 8 except that the compounds shown in Table 3 were used in place of Compound (11) of Experimental Example 8.
Viable cell count was analyzed in the same manner as in Experimental Example 8 except that comparative compounds 1 to 4 were used in place of Compound (11) of Experimental Example 8.
The growth rate in Examples herein is a numerical value of the number of cells obtained after culture relative to the number of cells (regarded as 100) grown in a medium containing 0.1% DMSO.
Evaluation of cancer cell inhibition against the prostatic cancer cells (PC-3) was made as follows. • A: Cancer cell growth rate is less than 20% (cancer cell inhibitory (growth suppressive) effect is extremely high) • B: Cancer cell growth rate is 20% or more and less than 50% (cancer cell inhibitory (growth suppressive) effect is high) • C: Cancer cell growth rate is 50% or more (cancer cell inhibitory (growth suppressive) effect is low)

In the case of `COc1ccc(N2c3ccc(/C=C/C4=[N+](C)c5ccccc5C4(C)C)cc3C3CCCC32)cc1` (centres unmarked) [Compound 11], the activity at 10 µg/mL (read-out: Evaluation (cancer cell growth rate)) is reported as less than 20% and the activity at 10 µg/mL (relative to 0.1% DMSO (100), read-out: Cancer cell growth rate (%)) is reported as 6.7%.
